17 compounds from US10385057B2, “Pyrazole compounds and methods of making and using same” (Lundbeck La Jolla Research Center, Inc., priority 2015, dated 2019) can be followed below.

The IC50 is the point on the concentration scale where inhibition reaches its midpoint. Read a high IC50 as a need for much substance.

In test [1] the target is T1, MAGL (Mus musculus, UniProt O35678).
T1 construct: mouse brain membrane fraction or cell lysates for mouse assays; from tissue
T1 sequence (O35678 1-303): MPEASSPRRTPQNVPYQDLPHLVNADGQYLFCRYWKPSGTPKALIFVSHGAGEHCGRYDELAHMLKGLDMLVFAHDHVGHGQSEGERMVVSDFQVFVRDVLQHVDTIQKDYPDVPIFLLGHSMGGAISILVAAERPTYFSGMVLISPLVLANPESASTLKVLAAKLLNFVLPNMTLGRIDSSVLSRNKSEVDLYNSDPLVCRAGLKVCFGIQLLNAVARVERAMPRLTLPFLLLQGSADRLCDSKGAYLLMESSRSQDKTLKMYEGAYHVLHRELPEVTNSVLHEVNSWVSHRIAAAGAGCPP
The test can be described thus: In vitro competitive activity-based protein profiling, mouse MAGL. Type of test: biochemical. The conditions noted are these: for inhibition at 1 µM: read-out: MAGL % inh. 1 μM (mouse). A digest of the protocol:
(§1)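 Mouse brain membranes or cell lysates (mouse) and human prefrontal cortex or cell membrane fractions (human), 1.0 mg/mL protein, preincubated with inhibitor 30 min at 37 °C, then FP-Rh or HT-01 probe 30 min at 37 °C. SDS-PAGE; MAGL and FAAH activity from in-gel fluorescence band intensity.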

A further test has as its target T2, FAAH (Mus musculus, UniProt O08914).
T2 construct: mouse brain membrane fraction or cell lysates for mouse assays; from tissue
T2 sequence (O08914 1-579): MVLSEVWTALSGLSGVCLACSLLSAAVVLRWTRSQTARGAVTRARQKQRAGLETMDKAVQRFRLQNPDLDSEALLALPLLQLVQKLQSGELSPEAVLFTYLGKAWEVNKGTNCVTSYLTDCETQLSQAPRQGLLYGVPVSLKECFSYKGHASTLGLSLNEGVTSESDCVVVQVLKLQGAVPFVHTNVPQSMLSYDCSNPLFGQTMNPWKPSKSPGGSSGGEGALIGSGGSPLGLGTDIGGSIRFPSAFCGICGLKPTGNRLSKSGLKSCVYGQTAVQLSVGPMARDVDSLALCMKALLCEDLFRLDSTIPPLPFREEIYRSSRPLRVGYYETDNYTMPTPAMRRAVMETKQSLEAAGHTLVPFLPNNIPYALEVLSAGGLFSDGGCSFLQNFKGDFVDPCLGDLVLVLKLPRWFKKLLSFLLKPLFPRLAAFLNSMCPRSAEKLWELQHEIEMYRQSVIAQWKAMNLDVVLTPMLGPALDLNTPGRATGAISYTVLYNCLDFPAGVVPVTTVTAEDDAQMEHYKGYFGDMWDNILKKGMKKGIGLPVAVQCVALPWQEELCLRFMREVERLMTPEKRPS
The test can be described thus: In vitro competitive activity-based protein profiling, mouse FAAH. It is filed as biochemical. The note with it: for inhibition at 1 µM: read-out: FAAH % inh. 1 μM (mouse). A digest of the protocol:
as §1

Test [2] has as its target T1, MAGL. Kind of test: Mouse brain proteomes from inhibitor treated mice, MAGL. Type of test: in vivo. The conditions noted are these: oral gavage, brain 4 h after administration, read-out: MAGL % inh. 5 mg/kg (mouse). As for the experimental part:
Preparation of Mouse Brain Proteomes from Inhibitor Treated Mice.
Inhibitors were administered to wild-type C57Bl/6J by oral gavage in a vehicle of polyethylene glycol. Each animal was sacrificed 4 h following administration and brain proteomes were prepared and analyzed according to previously established methods (See Niphakis, M. J., et al. (2011) ACS Chem. Neurosci. and Long, J. Z., et al. Nat. Chem. Biol. 5:37-44).

Turning to `NC(=O)c1cnn(C(=O)N2CCC3(CCN(Cc4cc(Cl)ccc4Cl)C3)C2)c1` (centres unmarked) [Example 39, 1-(7-(2,5-dichlorobenzyl)-2,7-diazaspiro[4.4]nonane-2-carbonyl)-1H-pyrazole-4-carboxamide], the inhibition at 1 µM on MAGL [1] (1 μM) and at FAAH (1 μM) was at least 75% each time. In addition, the inhibition at 5 mg/kg on MAGL [2] was at least 75%.

As to `NC(=O)c1cnn(C(=O)N2CCC3(CCN(Cc4cccc(C(F)(F)F)c4)C3)C2)c1` (centres unmarked) [Example 41, 1-(7-(3-(trifluoromethyl)benzyl)-2,7-diazaspiro[4.4]nonane-2-carbonyl)-1H-pyrazole-4-carboxamide], the half-maximal inhibitory concentration (IC50) is 100 to 1000 nM on MAGL [1] and at most 100 nM on FAAH. The inhibition at 1 µM at MAGL [1] (1 μM) and on FAAH (1 μM) was at least 75% throughout. Also, the inhibition at 5 mg/kg on MAGL [2] is at least 75%.

Regarding `NC(=O)c1cnn(C(=O)N2CCC3(CCN(Cc4cc(Cl)cc(C(F)(F)F)c4)C3)C2)c1` (centres unmarked) [Example 43, 1-(7-(3-chloro-5-(trifluoromethyl)benzyl)-2,7-diazaspiro[4.4]nonane-2-carbonyl)-1H-pyrazole-4-carboxamide], the half-maximal inhibitory concentration (IC50) at MAGL [1] and on FAAH was at most 100 nM each time. In addition, the inhibition at 1 µM at MAGL [1] (1 μM) and on FAAH (1 μM) was at least 75% in each case. Moreover, the inhibition at 5 mg/kg on MAGL [2] is at least 75%.

With `NC(=O)c1cnn(C(=O)N2CCC3(CCN(Cc4ccc(N5CCOCC5)cc4C(F)(F)F)C3)C2)c1` (centres unmarked) [Example 45, 1-(7-(4-morpholino-2-(trifluoromethyl)benzyl)-2,7-diazaspiro[4.4]nonane-2-carbonyl)-1H-pyrazole-4-carboxamide], the IC50 at MAGL [1] is 100 to 1000 nM; on FAAH, at most 100 nM. In addition, the inhibition at 1 µM on MAGL [1] (1 μM) and at FAAH (1 μM) was at least 75% throughout. Also, the inhibition at 5 mg/kg on MAGL [2] is at least 75%.

Consider `O=C(c1cnn(C(=O)N2CCC3(CCN(Cc4ccc(N5CCOCC5)cc4C(F)(F)F)C3)C2)c1)N1CCCC1` (centres unmarked) [Example 50, (1-(7-(4-morpholino-2-(trifluoromethyl)benzyl)-2,7-diazaspiro[4.4]nonane-2-carbonyl)-1H-pyrazol-4-yl)(pyrrolidin-1-yl)methanone], for which the figures for the 50% inhibitory concentration (IC50) on MAGL [1] and on FAAH were 100 to 1000 nM and at most 100 nM, respectively. Further, the inhibition at 1 µM on MAGL [1] (1 μM) and on FAAH (1 μM) was at least 75% in each case. Also, the inhibition at 5 mg/kg at MAGL [2] was 0 to 25%.

Consider `CNC(=O)c1cnn(C(=O)N2C[C@H]3C[C@@H](N(C)Cc4ccc(C(F)(F)F)cc4)C[C@H]3C2)c1` [Example 54, N-methyl-1-(cis-5-(methyl(4-(trifluoromethyl)benzyl)amino)octahydrocyclopenta[c]pyrrole-2-carbonyl)-1H-pyrazole-4-carboxamide], for which the IC50 is 100 to 1000 nM at MAGL [1] and at most 100 nM at FAAH. Besides, the inhibition at 1 µM on MAGL [1] (1 μM) and on FAAH (1 μM) was at least 75% each time. The inhibition at 5 mg/kg on MAGL [2] was at least 75%.

On to `CN(Cc1ccc(C(F)(F)F)cc1)[C@@H]1C[C@@H]2CN(C(=O)n3cc(C(N)=O)cn3)C[C@@H]2C1` [Example 55, 1-(cis-5-(methyl(4-(trifluoromethyl)benzyl)amino)octahydrocyclopenta[c]pyrrole-2-carbonyl)-1H-pyrazole-4-carboxamide], for which the IC50 at MAGL [1] and on FAAH was at most 100 nM in each case. Also, the inhibition at 1 µM at MAGL [1] (1 μM) and at FAAH (1 μM) was at least 75% throughout. Moreover, at MAGL [2], the inhibition at 5 mg/kg was at least 75%.

As for `CN(Cc1ccccc1Cl)[C@@H]1C[C@@H]2CN(C(=O)n3cc(Cl)cn3)C[C@@H]2C1` [Example 59, (4-chloro-1H-pyrazol-1-yl)(trans-5-((2-chlorobenzyl)(methyl)amino)hexahydrocyclopenta[c]pyrrol-2(1H)-yl)methanone], the IC50 on MAGL [1] and at FAAH was at most 100 nM each time. For the same compound, the “MAGL % inh. 1 μM (mouse)” value on MAGL [1] (1 μM) is recorded as “A (% inhibition greater than or equal to 75%)”. In addition, at FAAH (1 μM), the “FAAH % inh. 1 μM (mouse)” value is listed as “A (% inhibition greater than or equal to 75%)”. In addition, the inhibition at 5 mg/kg on MAGL [2] was at least 75%.

On to `CN(Cc1cc(C(F)(F)F)ccc1Cl)[C@@H]1C[C@@H]2CN(C(=O)n3cc(C(N)=O)cn3)C[C@@H]2C1` [Example 218, 1-(cis-5-((2-chloro-5-(trifluoromethyl)benzyl)(methyl)amino)octahydrocyclopenta[c]pyrrole-2-carbonyl)-1H-pyrazole-4-carboxamide], for which the inhibition at 1 µM at MAGL [1] (1 μM) and at FAAH (1 μM) was at least 75% each time.

With `CN(Cc1cc(Cl)ccc1C(F)(F)F)[C@@H]1C[C@@H]2CN(C(=O)n3cc(C(N)=O)cn3)C[C@@H]2C1` [Example 219, 1-(cis-5-((5-chloro-2-(trifluoromethyl)benzyl)(methyl)amino)octahydrocyclopenta[c]pyrrole-2-carbonyl)-1H-pyrazole-4-carboxamide], the inhibition at 1 µM on MAGL [1] (1 μM) and on FAAH (1 μM) was at least 75% each time.

For the compound `CN(Cc1ccc(C(F)(F)F)c(N2CCCC2)c1)[C@@H]1C[C@@H]2CN(C(=O)n3cc(C(N)=O)cn3)C[C@@H]2C1` [Example 221, 1-(cis-5-(methyl(3-(pyrrolidin-1-yl)-4-(trifluoromethyl)benzyl)amino)octahydrocyclopenta[c]pyrrole-2-carbonyl)-1H-pyrazole-4-carboxamide], the inhibition at 1 µM at MAGL [1] (1 μM) and at FAAH (1 μM) was at least 75% throughout.

Take `CN(Cc1cc(N2CCCC2)cc(C(F)(F)F)c1)[C@@H]1C[C@@H]2CN(C(=O)n3cc(C(N)=O)cn3)C[C@@H]2C1` [Example 222, 1-(cis-5-(methyl(3-(pyrrolidin-1-yl)-5-(trifluoromethyl)benzyl)amino)octahydrocyclopenta[c]pyrrole-2-carbonyl)-1H-pyrazole-4-carboxamide]: the inhibition at 1 µM on MAGL [1] (1 μM) and at FAAH (1 μM) was at least 75% each time.

As for `CN(Cc1ccc(-c2cnccn2)cc1C(F)(F)F)[C@H]1C[C@@H]2CN(C(=O)n3cc(C(N)=O)cn3)C[C@@H]2C1` [Example 223, 1-(trans-5-(methyl(4-(pyrazin-2-yl)-2-(trifluoromethyl)benzyl)amino)octahydrocyclopenta[c]pyrrole-2-carbonyl)-1H-pyrazole-4-carboxamide], the inhibition at 1 µM at MAGL [1] (1 μM) and on FAAH (1 μM) was at least 75% each time.

Turning to `CN(Cc1ccc(-c2nccs2)cc1C(F)(F)F)[C@H]1C[C@@H]2CN(C(=O)n3cc(C(N)=O)cn3)C[C@@H]2C1` [Example 224, 1-(trans-5-(methyl(4-(thiazol-2-yl)-2-(trifluoromethyl)benzyl)amino)octahydrocyclopenta[c]pyrrole-2-carbonyl)-1H-pyrazole-4-carboxamide], the inhibition at 1 µM on MAGL [1] (1 μM) and at FAAH (1 μM) was at least 75% in each case.

For `CN(Cc1ccc(-c2cccnn2)cc1C(F)(F)F)[C@H]1C[C@@H]2CN(C(=O)n3cc(C(N)=O)cn3)C[C@@H]2C1` [Example 225, 1-(trans-5-(methyl(4-(pyridazin-3-yl)-2-(trifluoromethyl)benzyl)amino)octahydrocyclopenta[c]pyrrole-2-carbonyl)-1H-pyrazole-4-carboxamide], the inhibition at 1 µM at MAGL [1] (1 μM) was at least 75%; on FAAH (1 μM), 50 to 75%.

For the compound `CN(Cc1ccc(-c2cnccn2)cc1C(F)(F)F)[C@@H]1C[C@@H]2CN(C(=O)n3cc(C(N)=O)cn3)C[C@@H]2C1` [Example 226, 1-(cis-5-(methyl(4-(pyrazin-2-yl)-2-(trifluoromethyl)benzyl)amino)octahydrocyclopenta[c]pyrrole-2-carbonyl)-1H-pyrazole-4-carboxamide], the inhibition at 1 µM on MAGL [1] (1 μM) and at FAAH (1 μM) was at least 75% throughout.

With `CN(Cc1ccc(-c2nccs2)cc1C(F)(F)F)[C@@H]1C[C@@H]2CN(C(=O)n3cc(C(N)=O)cn3)C[C@@H]2C1` [Example 227, 1-(cis-5-(methyl(4-(thiazol-2-yl)-2-(trifluoromethyl)benzyl)amino)octahydrocyclopenta[c]pyrrole-2-carbonyl)-1H-pyrazole-4-carboxamide], the inhibition at 1 µM at MAGL [1] (1 μM) and at FAAH (1 μM) was at least 75% throughout.
